“Also recorded” adds a separate entry of the source.
Key:
rats = experiment: food and kaolin consumption and body weight in rats (semaglutide, tirzepatide); assay type: in vivo, Sprague-Dawley rat
Text: Adult male Sprague-Dawley rats (Charles River) weighing ~250 to 270 g (n = 45) at arrival were housed under a 12-hour/12-hour light/dark cycle in a temperature-controlled and humidity-controlled vivarium. Rats were individually housed in hanging wire-bottom cage with ad libitum access to chow diet (Purina Lab Diet 5001) or, when noted, to high-fat/high-sugar diet (60% fat diet, 12492, Research Diets) and tap water and had ad libitum access to kaolin pellets (Research Diets, K50001). Rats were exposed to kaolin for at least 5 days prior to measuring kaolin consumption in pica testing. Kaolin intake and food consumption were measured simultaneously as the presence of kaolin in the cage, and its subsequent ingestion, has usually negligible effects on the hypophagic and body weight–lowering effects of the treatments.
GIPFA-085 (GIP-085), tirzepatide, and GLP-140 were designed and produced by Eli Lilly and Company. GIP-085, GLP-140, and semaglutide (Cayman Chemical) were dissolved in 40 mM tris-HCl buffer (pH 8) and 0.02% Tween 80. For the study in mice, all drugs were injected subcutaneously at a volume of 5 ml/kg of body weight. In rats, all drugs were injected intraperitoneally, at a volume of 1 ml/kg of body weight, except when noted. In shrews, all drugs were injected intraperitoneally at a volume of 10 ml/kg of body weight.
In two separate cohorts of rats (n = 10 per group, body weight ~ 460 ± 9 g), food consumption, kaolin intake, and body weight were measured after an intraperitoneal administration of vehicle, semaglutide (10 and 100 nmol/kg), or tirzepatide (10 and 100 nmol/kg), respectively. Food and kaolin intake were measured at 3, 6, 24, and 48 hours postinjection, and body weight was measured at 0, 24, and 48 hours. For each drug, a within-subject paradigm was used, with each round of injections separated by 7 days.

shrews = experiment: emesis, tirzepatide dose-response, shrews; assay type: in vivo, Suncus murinus; settings: 10, 100 and 1000 nmol/kg ip; 120 min; n = 9 per group
Text: Adult male shrews (S. murinus) weighing ~50 to 80 g (n = 84 total) were bred and maintained in the De Jonghe Lab (University of Pennsylvania). These animals were offspring from a colony previously maintained at the University of Pittsburgh Cancer Institute (C. Horn); a Taiwanese strain was derived from stock originally supplied by the Chinese University of Hong Kong. Shrews were singly housed in plastic cages (37.3 cm by 23.4 cm by 14 cm, Innovive) under a 12-hour/12-hour light/dark cycle in a temperature-controlled and humidity-controlled environment. Animal were fed ad libitum with a mixture of feline (75%, Laboratory Feline Diet 5003, Lab Diet) and mink food (25%, High Density Ferret Diet 5LI4, Lab Diet) and had ad libitum access to tap water except where noted.
We then evaluated the emetogenic actions of tirzepatide (10, 100, and 1000 nmol/kg) or vehicle in a different cohort of shrews (n = 9). The animals were habituated to the experimental conditions as described above. Treatments were separated by 7 days. Emetic episodes were recorded and quantified as described above.

patients = settings: human, in vivo; cited from earlier work

Compound: CC[C@H](C)[C@H](NC(=O)[C@H](CC(C)C)NC(=O)[C@H](Cc1c[nH]c2ccccc12)NC(=O)[C@H](CCC(N)=O)NC(=O)[C@@H](NC(=O)[C@H](Cc1ccccc1)NC(=O)[C@H](C)NC(=O)[C@H](CCCCNC(=O)COCCOCCNC(=O)COCCOCCNC(=O)CC[C@H](NC(=O)CCCCCCCCCCCCCCCCCCC(=O)O)C(=O)O)NC(=O)[C@H](CCC(N)=O)NC(=O)[C@H](C)NC(=O)[C@@H](NC(=O)[C@H](CCCCN)NC(=O)[C@H](CC(=O)O)NC(=O)[C@H](CC(C)C)NC(=O)C(C)(C)NC(=O)[C@@H](NC(=O)[C@H](CO)NC(=O)[C@H](Cc1ccc(O)cc1)NC(=O)[C@H](CC(=O)O)NC(=O)[C@H](CO)NC(=O)[C@@H](NC(=O)[C@H](Cc1ccccc1)NC(=O)[C@@H](NC(=O)CNC(=O)[C@H](CCC(=O)O)NC(=O)C(C)(C)NC(=O)[C@@H](N)Cc1ccc(O)cc1)[C@@H](C)O)[C@@H](C)O)[C@@H](C)CC)[C@@H](C)CC)C(C)C)C(=O)N[C@@H](C)C(=O)NCC(=O)NCC(=O)N1CCC[C@H]1C(=O)N[C@@H](CO)C(=O)N[C@@H](CO)C(=O)NCC(=O)N[C@@H](C)C(=O)N1CCC[C@H]1C(=O)N1CCC[C@H]1C(=O)N1CCC[C@H]1C(=O)N[C@@H](CO)C(N)=O [tirzepatide]
- kaolin intake (rats; 100 nmol/kg ip, n = 10 per group, vs vehicle): causes significant kaolin intake
- kaolin consumption, semaglutide vs tirzepatide (rats; 100 nmol/kg ip, n = 10 to 20 per group): induces less kaolin consumption in rats compared to equipotent doses of semaglutide
- kaolin consumption vs vehicle, tirzepatide (rats; tirzepatide, rats (dose not stated at this place)): still significantly elevated compared to vehicle-treated animals
- emesis (shrews): complete absence of emesis; also recorded: no emesis occurred; also recorded: complete absence of any emetic episode

Compound: AMG 133: bispecific molecule engineered by conjugating a GIPR antagonizing antibody with a GLP-1R agonist
- patients reporting nausea (patients): 100%
